Measurements: paper PMC5679017 (Journal of medicinal chemistry, 2016)

What was measured:
mice [1] = settings: 2 nmol dose; 3, 4, 5, 6, 16 and 24 hours after administration; cited from earlier work
melanocortin receptors = settings: cited from earlier work
mice [2] = test: Cannula placement validation with hPYY, food intake; format: in vivo, mouse; settings: 2.5 μg human PYY3-36, validated cannulated mice (saline: 0.42 ±0.07 g)

Compound | food intake after ICV administration (previous study) (mice [1]) | binding affinity at the melanocortin receptors (reported) (melanocortin receptors) | food eaten four hours after administration (mice [2]) [g]
CC(=O)N[C@@H](Cc1c[nH]cn1)C(=O)N[C@H](Cc1ccccc1)C(=O)N[C@@H](CCCNC(=N)N)C(=O)N[C@@H](Cc1c[nH]c2ccccc12)C(N)=O [Compound 1, Ac-His-DPhe-Arg-Trp-NH2] | decrease food intake | high nanomolar to low micromolar | 
hPYY: human PYY3-36 (Bachem) used to verify cannula placement |  |  | 1.79 ± 0.13
